Measurements as given in patent US20230416205A1, “COMPOUNDS, COMPOSITIONS, AND METHODS” (Denali Therapeutics Inc, priority 2020, published 2023).
Like-named read-outs stand apart in the source and are kept apart here.

Tested on: NLRP3
Assay: IL-1β secretion assay in PMA-differentiated, LPS/nigericin-stimulated THP-1 cells (384-well, ELISA read-out)
Assay type: cell-based, human
Experimental: Compounds as provided herein were tested in the following assay. Cell culture medium employed contained RPMI 1640 medium (89%), FBS (10%), Pen/Strep (1%), and 2-mercaptoethanol (0.05 mM). Freezing medium was made up of 90% FBS and 10% DMSO. THP-1 cells were removed from the liquid nitrogen and placed into a 37° C. water bath to thaw, until signs of ice dissipated. The cells were then added to 9 mL of warm cell culture medium and centrifuged for 5 minutes at 1000 rpm. The supernatant was discarded, and the cells were resuspended in new cell culture medium. THP-1 cells were then split and cultured in the cell culture medium, being passaged every 2-3 days with the cell density will be maintained between 5×10^5 and 1.5×10^6 viable cells/mL.
To freeze, cells were resuspended with fresh freezing medium, adjusting the cell density to 5×10^6 cells/mL. The cell suspension was partitioned into 1 mL aliquots per vial, and the vials were transferred to a −80° C. freezer. After one day at −80° C., the cell vials were transferred to liquid nitrogen freezer for storage.
PMA was dissolved in DMSO to make a stock solution at 5 mg/mL and stored in 10 μl aliquots at −20° C. for single use. PMA is added to normal growth medium. LPS was diluted with 1 mL of water solution to provide a 1 mg/mL stock solution and stored in 15 μl aliquots at −20° C. for single use. Nigericin is diluted in ice cold 100% ethanol to 5 mg/mL (6.7 mM) and stored in 75 μL aliquots at −20° C. for single use. Serum-free media contains RPMI 1640 medium (99%), Pen/Strep (1%), and 2-mercaptoethanol (0.05 mM). The two control conditions used to qualify and normalize test compound dose-response curves were as follows: High Control=25 ng/mL LPS, 5 μM Nigericin, 0.5% DMSO, Low Control=25 ng/mL, LPS, 0.5% DMSO.
THP-1 cells were diluted to provide a suspension at a concentration of 1.0×10^6 cells/mL with the total volume of suspension required to enable the desired number of assay plates. The growth media was supplemented with PMA (5 ng/mL final concentration) and the cells were incubated at 37° C. under a humidified atmosphere of 5% CO2 for 40 h.
All media was carefully aspirated from each culture flask. The cells were washed carefully with 1×DPBS. The cells were then briefly digested with trypsin LE for 5 minutes at 23° C., and immediately resuspended in cell growth media. After resuspension, the cells were centrifuged at 1000 rpm for 3 minutes and the supernatant was discarded. The cells were resuspended in DPBS and once again centrifuged at 1000 rpm for 5 minutes. The supernatant was discarded and the cell pellet was resuspended in serum-free media supplemented with LPS (25 ng/mL final concentration) to enable the distribution of 30K THP-1 cells within 45 μL of media into each well of 384-well PDL-coated plates. The 384-well plates were then incubated at 37° C. under a humidified atmosphere of 5% CO2 for 2 h. Following this period, test compounds were dispensed by Tecan across the desired concentration range with all wells normalized to a final 0.5% DMSO concentration. The plates were then incubated at 37° C. under a humidified atmosphere of 5% CO2 for 1 h. Following this period, 5 μL of the […] was added to each of the appropriate wells and plates were centrifuged at 1000 rpm for 30 seconds. The plates were the immediately reintroduced to the incubator at 37° C. under a humidified atmosphere of 5% CO2 for 2 h. After this time, 35 μL/well of supernatant was collected and transferred into v-bottom plate and centrifuged at 1000 rpm for 1 minute. These supernatant aliquots were analyzed using an IL-Iβ detection kit as described below. If needed, the test samples could be snap frozen and stored at −80° C. until analyzed.
To prepare each ELISA plate, capture antibody (mAb Mt175) was diluted with PBS to a final concentration of 2 μg/mL and then 20 μL of this solution was added to each well of the ELISA plate. Each plate was allowed to incubate overnight at 4° C.

[1] = Homo sapiens, THP-1, IL-1β secretion, PMA-differentiated THP-1 cells, LPS then nigericin stimulation, ELISA read at 450 nm, read-out: Activity
[2] = Table 4, IL-1β secretion, LPS/nigericin-stimulated THP-1 cells, read-out: IC50
[3] = Homo sapiens, THP-1, Table 4, IL-1β secretion, LPS/nigericin-stimulated THP-1 cells, read-out: IC50
[4] = IL-1β secretion, PMA-differentiated THP-1 cells, LPS then nigericin stimulation, ELISA read at 450 nm, read-out: Activity

Q: `O=C(CN1CC(C(F)(F)F)c2c(ccc(Br)c2F)C1=O)Nc1ncc(F)cn1` (single isomer, unassigned) [Example 297, 2-[6-bromo-5-fluoro-1-oxo-4-(trifluoromethyl)-3,4-dihydroisoquinolin-2-yl]-N-(5-fluoropyrimidin-2-yl)acetamide] was tested. Which IC50 [1] did it give?
A: 10 to 15 µM

Q: And the IC50 [2]?
A: 14.4 µM

Q: `O=C(CN1CC2(CC2)c2cc(Br)ccc2C1=O)Nc1nc2cc(C(F)(F)F)ccc2o1` [Example 358, 2-(6-bromo-1-oxospiro[3H-isoquinoline-4,1′-cyclopropane]-2-yl)-N-[5-(trifluoromethyl)-1,3-benzoxazol-2-yl]acetamide] was tested. Which IC50 [3] did it give?
A: 1.29 µM

Q: With `Cc1cc(NC(=O)CN2CC3(CC3)c3cc(Br)ccc3C2=O)nc(C)n1` [Example 216, 2-(6-bromo-1-oxospiro[3H-isoquinoline-4,1′-cyclopropane]-2-yl)-N-(2,6-dimethylpyrimidin-4-yl)acetamide] as the compound, how does the IC50 [1] read?
A: < 10 µM

Q: What about the IC50 [3] of the same compound?
A: 3.98 µM

Q: What does the source list for `Cn1ncc2nc(NC(=O)CN3CC4(CC4)c4cc(Br)ccc4C3=O)ccc21` [Example 189, 2-(6-bromo-1-oxospiro[3H-isoquinoline-4,1′-cyclopropane]-2-yl)-N-(1-methylpyrazolo[4,3-b]pyridin-5-yl)acetamide]?
A: IC50 [1]: < 10 µM; IC50 [3]: 3.76 µM

Q: What does the source list for `O=C(CN1CC2(CC2)c2cc(Br)ccc2C1=O)Nc1cnc2[nH]ccc2c1` [Example 156, 2-(6-bromo-1-oxospiro[3H-isoquinoline-4,1′-cyclopropane]-2-yl)-N-(1H-pyrrolo[2,3-b]pyridin-5-yl)acetamide]?
A: IC50 [1]: < 10 µM; IC50 [3]: 4.39 µM

Q: With `O=C1c2ccc(Br)cc2C2(CC2)CN1C1(C(=O)Nc2ncccn2)CC1` [Example 77, 1-(6-bromo-1-oxospiro[3H-isoquinoline-4,1′-cyclopropane]-2-yl)-N-pyrimidin-2-ylcyclopropane-1-carboxamide] as the compound, how does the IC50 [1] read?
A: < 10 µM

Q: And the IC50 [3]?
A: 3.72 µM

Q: Which IC50 [3] does the source give for `O=C(CN1CC2(CC2)c2cc(Br)ccc2C1=O)Nc1ncc2ncsc2n1` [Example 409, 2-(6-bromo-1-oxospiro[3H-isoquinoline-4,1′-cyclopropane]-2-yl)-N-([1,3]thiazolo[5,4-d]pyrimidin-5-yl)acetamide] here?
A: 1.37 µM

Q: How did the IC50 [4] turn out when `O=C(CN1C[C@@]2(C[C@@H]2F)c2cc(C(F)(F)F)ccc2C1=O)Nc1ncc(C(F)(F)F)cn1` (single isomer, unassigned) [Example 243, 2-[(2′s,4r)-2′-fluoro-1-oxo-6-(trifluoromethyl)spiro[3H-isoquinoline-4,1′-cyclopropane]-2-yl]-N-[5-(trifluoromethyl)pyrimidin-2-yl]acetamide] was run?
A: < 10 µM

Q: And the IC50 [2]?
A: 0.095 µM

Q: With `COCC1CC(NC(=O)CN2CC3(CC3)c3cc(Br)ccc3C2=O)C1` (stereo not drawn) [Example 382, 2-(6-bromo-1-oxospiro[3H-isoquinoline-4,1′-cyclopropane]-2-yl)-N-[3-(methoxymethyl)cyclobutyl]acetamide] as the compound, how does the IC50 [3] read?
A: 8.79 µM

Q: `O=C(CN1CC2(CC2)c2cc(Br)ccc2C1=O)NC1CC(F)(F)C1` [Example 67, 2-(6-bromo-1-oxo-spiro[3H-isoquinoline-4,1′-cyclopropane]-2-yl)-N-(3,3-difluorocyclobutyl)acetamide] was tested. Which IC50 [1] did it give?
A: < 10 µM

Q: And the IC50 [3]?
A: 8.75 µM

Q: What does the source list for `O=C(CN1CC2(CC2)c2cc(Br)ccc2C1=O)Nc1cn2ccnc2cn1` [Example 179, 2-(6-bromo-1-oxospiro[3H-isoquinoline-4,1′-cyclopropane]-2-yl)-N-imidazo[1,2-a]pyrazin-6-ylacetamide]?
A: IC50 [1]: < 10 µM; IC50 [3]: 2.24 µM

Q: Which IC50 [3] does the source give for `CN1CCC[C@@H](NC(=O)CN2CC3(CC3)c3cc(Br)ccc3C2=O)C1` [Example 360, 2-(6-bromo-1-oxospiro[3H-isoquinoline-4,1′-cyclopropane]-2-yl)-N-[(3R)-1-methylpiperidin-3-yl]acetamide] here?
A: 3.46 µM

Q: `O=C(CN1CC2(CC2)c2cc(Br)ccc2C1=O)Nc1cccn2ccnc12` [Example 155, 2-(6-bromo-1-oxospiro[3H-isoquinoline-4,1′-cyclopropane]-2-yl)-N-imidazo[1,2-a]pyridin-8-ylacetamide] was tested. Which IC50 [1] did it give?
A: < 10 µM

Q: And the IC50 [3]?
A: 3.61 µM

Q: Which IC50 [1] does the source give for `O=C(CN1CC2(CC2)c2cc(Br)ccc2C1=O)Nc1cccc2nccn12` [Example 116, 2-(6-bromo-1-oxospiro[3H-isoquinoline-4,1′-cyclopropane]-2-yl)-N-imidazo[1,2-a]pyridin-5-ylacetamide] here?
A: < 10 µM

Q: And the IC50 [3]?
A: 4.16 µM

Q: How did the IC50 [3] turn out when `O=C(CN1CC2(CC2)c2cc(Br)ccc2C1=O)Nc1ccn2ccnc2n1` [Example 374, 2-(6-bromo-1-oxospiro[3H-isoquinoline-4,1′-cyclopropane]-2-yl)-N-imidazo[1,2-a]pyrimidin-7-ylacetamide] was run?
A: 9.45 µM

Q: How did the IC50 [4] turn out when `O=C(CN1CC2(CC2)c2cc([C@@]3(F)C[C@H]3F)ccc2C1=O)Nc1ncc(F)cn1` (single isomer, unassigned) [Example 254, 2-[6-[(1r,2s)-1,2-difluorocyclopropyl]-1-oxospiro[3H-isoquinoline-4,1′-cyclopropane]-2-yl]-N-(5-fluoropyrimidin-2-yl)acetamide] was run?
A: < 10 µM

Q: What about the IC50 [2] of the same compound?
A: 0.434 µM

Q: `O=C(CN1CC2(CC2)c2cc(Br)ccc2C1=O)Nc1ccc(-c2nnn[nH]2)cc1` [Example 172, 2-(6-bromo-1-oxospiro[3H-isoquinoline-4,1′-cyclopropane]-2-yl)-N-[4-(1H-tetrazol-5-yl)phenyl]acetamide] was tested. Which IC50 [1] did it give?
A: > 15 µM

Q: What about the IC50 [3] of the same compound?
A: 23.7 µM

Q: For `O=C(CN1CC2(CC2)c2cc(Br)ccc2C1=O)Nc1ccc2[nH]nnc2c1` [Example 167, N-(1H-benzotriazol-5-yl)-2-(6-bromo-1-oxospiro[3H-isoquinoline-4,1′-cyclopropane]-2-yl)acetamide], which IC50 [1] is on record?
A: < 10 µM

Q: What about the IC50 [3] of the same compound?
A: 0.146 µM

Q: Which IC50 [3] does the source give for `COc1ccc(NC(=O)CN2CC3(CC3)c3cc(Br)ccc3C2=O)cn1` [Example 418, 2-(6-bromo-1-oxospiro[3H-isoquinoline-4,1′-cyclopropane]-2-yl)-N-(6-methoxypyridin-3-yl)acetamide] here?
A: 3.48 µM

Q: How did the IC50 [1] turn out when `O=C(CN1CC2(CC2)c2cc(Br)ccc2C1=O)Nc1ncc(C2CC2)cn1` [Example 194, 2-(6-bromo-1-oxospiro[3H-isoquinoline-4,1′-cyclopropane]-2-yl)-N-(5-cyclopropylpyrimidin-2-yl)acetamide] was run?
A: < 10 µM

Q: And the IC50 [3]?
A: 0.39 µM

Q: Which IC50 [1] does the source give for `O=C(CN1CC2(CC2)c2cc(Br)ccc2C1=O)N[C@H]1C[C@H](C(F)(F)F)C1` [Example 54, 2-(6-bromo-1-oxo-spiro[3H-isoquinoline-4,1′-cyclopropane]-2-yl)-N-[trans-3-(trifluoromethyl)cyclobutyl]acetamide] here?
A: < 10 µM

Q: What about the IC50 [3] of the same compound?
A: 1.55 µM

Q: How did the IC50 [3] turn out when `O=C(CN1CC2(CC2)c2c(ccc(C3C[C@@H]3F)c2F)C1=O)Nc1ncc(F)cn1` (single isomer, unassigned) [Example 305, 2-[5-fluoro-6-[(1r,2s)-2-fluorocyclopropyl]-1-oxospiro[3H-isoquinoline-4,1′-cyclopropane]-2-yl]-N-(5-fluoropyrimidin-2-yl)acetamide] was run?
A: 0.662 µM

Q: `O=C(CN1CC2(CC2)c2cc([C@@]3(F)C[C@@H]3F)ccc2C1=O)Nc1ncc(F)cn1` (single isomer, unassigned) [Example 251, 2-[6-[(1r,2r)-1,2-difluorocyclopropyl]-1-oxospiro[3H-isoquinoline-4,1′-cyclopropane]-2-yl]-N-(5-fluoropyrimidin-2-yl)acetamide] was tested. Which IC50 [1] did it give?
A: < 10 µM

Q: What about the IC50 [3] of the same compound?
A: 0.55 µM
